Source: patent publication US20080269250A1, “Pyrrolidine and Piperidine Acetylene Derivatives for Use as Mglur5 Antagonists” (priority 2005, published 2008)

biological target: T1, hmGluR5 (Homo sapiens, UniProt P41594); experiment: inhibition of quinqualate-induced inositol phosphate turnover in hmGluR5 expressing cells; assay type: cell-based; conditions: read-out: IC50 concentration, inhibition of quinqualate-induced inositol phosphate turnover
T1 construct: expressed in transfected cells
Source text: This can be determined in vitro for example at recombinant human metabotropic glutamate receptors, especially PLC-coupled subtypes thereof such as mGluRs, using different procedures like, for example, measurement of the inhibition of the agonist induced elevation of intracellular Ca^2+ concentration in accordance with L. P. Daggett et al., Neuropharm. Vol. 34, pages 871-886 (1995), P. J. Flor et al., J. Neurochem. Vol. 67, pages 58-63 (1996) or by determination to what extent the agonist induced elevation of the inositol phosphate turnover is inhibited as described by T. Knoepfel et al., Eur. J. Pharmacol. Vol. 288, pages 389-392 (1994), L. P. Daggett et al., Neuropharm. Vol. […] and references cited therein. Isolation and expression of human mGluR subtypes are described in U.S. Pat. No. 5,521,297. Selected agents of the invention show IC50 values for the inhibition of the agonist (e.g. glutamate or quisqualate) induced elevation of intracellular Ca2+ concentration or the agonist (e.g. glutamate or quisqualate) induced inositol phosphate turnover, measured in recombinant cells expressing hmGluR5a of about 1 nM to about 50 μM.

T1 sequence (P41594 21-1180 isoform P41594-2 limits assumed): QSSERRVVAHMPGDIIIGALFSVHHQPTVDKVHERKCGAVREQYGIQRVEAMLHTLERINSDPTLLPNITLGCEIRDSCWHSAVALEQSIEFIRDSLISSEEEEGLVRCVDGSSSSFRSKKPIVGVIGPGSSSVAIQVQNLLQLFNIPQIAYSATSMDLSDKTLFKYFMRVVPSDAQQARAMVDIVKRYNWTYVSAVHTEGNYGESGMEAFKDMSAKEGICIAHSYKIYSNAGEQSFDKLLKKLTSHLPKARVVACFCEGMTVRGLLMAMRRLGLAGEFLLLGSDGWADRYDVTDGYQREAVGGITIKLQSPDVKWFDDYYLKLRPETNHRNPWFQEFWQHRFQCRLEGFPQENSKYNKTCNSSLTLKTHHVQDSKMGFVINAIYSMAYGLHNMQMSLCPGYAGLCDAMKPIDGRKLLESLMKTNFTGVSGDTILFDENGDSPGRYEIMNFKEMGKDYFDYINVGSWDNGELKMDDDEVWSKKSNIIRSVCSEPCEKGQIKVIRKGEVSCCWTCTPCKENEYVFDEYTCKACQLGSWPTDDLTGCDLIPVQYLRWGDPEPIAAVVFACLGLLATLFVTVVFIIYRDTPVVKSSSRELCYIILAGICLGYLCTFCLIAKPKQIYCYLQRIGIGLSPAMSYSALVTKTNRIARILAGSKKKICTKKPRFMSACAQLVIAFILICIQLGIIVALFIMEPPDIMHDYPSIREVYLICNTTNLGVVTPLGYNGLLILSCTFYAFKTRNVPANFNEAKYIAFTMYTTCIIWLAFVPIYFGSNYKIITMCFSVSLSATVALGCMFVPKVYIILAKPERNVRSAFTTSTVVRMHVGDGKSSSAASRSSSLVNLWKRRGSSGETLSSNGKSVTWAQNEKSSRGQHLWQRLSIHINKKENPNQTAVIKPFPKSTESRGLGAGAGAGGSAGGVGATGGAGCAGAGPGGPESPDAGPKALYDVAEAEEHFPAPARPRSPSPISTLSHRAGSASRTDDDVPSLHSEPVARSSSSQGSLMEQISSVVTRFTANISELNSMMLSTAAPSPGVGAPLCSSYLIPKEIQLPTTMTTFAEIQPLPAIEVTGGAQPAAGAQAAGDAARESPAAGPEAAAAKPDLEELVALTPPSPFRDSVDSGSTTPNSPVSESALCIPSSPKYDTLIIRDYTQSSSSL

For `O=C(c1cc2ccccc2o1)N1CCC(O)(C#Cc2cccc(Cl)c2)CC1` [Example 1.8, Benzofuran-2-yl-[4-(3-chloro-phenyl-ethynyl)-4-hydroxy-piperidin-1-yl]-methanone], the IC50 was 290 nM.

tested on: mice; experiment: stress-induced hyperthermia in mice; assay type: in vivo; conditions: 10 mg/kg p.o.; control 0.93±0.1° C.; p<0.01
Protocol: A. Lecci et al., Psychopharmacol 101, 255-261]. At doses of about 0.1 to about 30 mg/kg p.o., selected agents of the invention reverse the stress-induced hyperthermia.

`O=C(c1cc2ccccc2o1)N1CCC(O)(C#Cc2cccc(Cl)c2)CC1` [Example 1.8, Benzofuran-2-yl-[4-(3-chloro-phenyl-ethynyl)-4-hydroxy-piperidin-1-yl]-methanone] gave a stress-induced hyperthermia of 0.44±0.08 °C.

same assay, conditions: 30 mg/kg p.o.; control 0.93±0.1° C.; p<0.05

For `O=C(c1cc2ccccc2o1)N1CCC(O)(C#Cc2cccc(Cl)c2)CC1` [Example 1.8, Benzofuran-2-yl-[4-(3-chloro-phenyl-ethynyl)-4-hydroxy-piperidin-1-yl]-methanone], the stress-induced hyperthermia was 0.46±0.14 °C.

same assay, conditions: 100 mg/kg p.o.; control 0.93±0.1° C.; p<0.001

`O=C(c1cc2ccccc2o1)N1CCC(O)(C#Cc2cccc(Cl)c2)CC1` [Example 1.8, Benzofuran-2-yl-[4-(3-chloro-phenyl-ethynyl)-4-hydroxy-piperidin-1-yl]-methanone] gave a stress-induced hyperthermia of 0.24±0.12 °C.

tested on: not given; experiment: not given; conditions: not given

Compared with `Cc1ccc(C)c(C#CC2(O)CCN(C(=O)c3ccoc3)CC2)c1` [Example 1.37, [4-(2,5-Dimethyl-phenylethynyl)-4-hydroxy-piperidin-1-yl]-furan-3-yl-methanone], `O=C(c1ccoc1)N1CCC(O)(C#Cc2ccc(F)cc2F)CC1` [Example 1.35, [4-(2,4-Difluoro-phenylethynyl)-4-hydroxy-piperidin-1-yl]-furan-3-yl-methanone] is lower in melting point: 110 to 114 °C for the first, 80 to 94 °C for the second.

Compared with `Cc1ncccc1N1CCC(O)(C#Cc2cccc(Cl)c2)CC1` [Example 1.164, 4-(3-Chloro-phenylethynyl)-2′-methyl-3,4,5,6-tetrahydro-2H-[1,3′]-bipyridinyl-4-ol], `Cc1cccnc1N1CCC(O)(C#Cc2cccc(Cl)c2)CC1` [Example 1.148, 4-(3-Chloro-phenylethynyl)-3′-methyl-3,4,5,6-tetrahydro-2H-[1,2′]bipyridinyl-4-ol] is higher in melting point: 98 to 102 °C for the first, 134 to 138 °C for the second.

Compared with `O=C(c1ccncc1)N1CCC(O)(C#Cc2cccc(Cl)c2)CC1` [Example 1.52, [4-(3-Chloro-phenylethynyl)-4-hydroxy-piperidin-1-yl]-pyridin-4-yl-methanone], `O=C(c1ccoc1)N1CCC(O)(C#Cc2cccc(Cl)c2)CC1` [Example 1, [4-(3-Chloro-phenylethynyl)-4-hydroxy-piperidin-1-yl]-furan-3-yl-methanone] is lower in melting point: 171 to 173 °C for the first, 93 to 94 °C for the second.

First: CN1CCC(C(=O)N2CCC(O)(C#Cc3cccc(Cl)c3)CC2)CC1 [Example 1.2, [4-(3-Chloro-phenylethynyl)-4-hydroxy-piperidin-1-yl]-(1-methyl-piperidin-4-yl)-methanone]
Second: O=C(c1ncc[nH]1)N1CCC(O)(C#Cc2cccc(Cl)c2)CC1 [Example 1.4, [4-(3-Chloro-phenylethynyl)-4-hydroxy-piperidin-1-yl]-(1H-imidazol-2-yl)-methanone]
The melting point of the first is higher: 134 to 136 °C for the first, 75 to 80 °C for the second.

First: O=C(c1ccoc1)N1CCC(O)(C#Cc2ccc(Cl)cc2)CC1 [Example 1.34, [4-(4-Chloro-phenylethynyl)-4-hydroxy-piperidin-1-yl]-furan-3-yl-methanone]
Second: O=C(c1ccoc1)N1CCC(O)(C#Cc2cccc(F)c2)CC1 [Example 1.31, [4-(3-Fluoro-phenylethynyl)-4-hydroxy-piperidin-1-yl]-furan-3-yl-methanone]
The melting point of the first is higher: 124 to 134 °C for the first, 67 to 81 °C for the second.

First: COc1cccc(C#CC2(O)CCN(C(=O)c3ccoc3)CC2)c1 [Example 1.36, Furan-3-yl-[4-hydroxy-4-(3-methoxy-phenylethynyl)-piperidin-1-yl]-methanone]
Second: O=C(c1ccno1)N1CCC(O)(C#Cc2cccc(Cl)c2)CC1 [Example 1.3, [4-(3-Chloro-phenylethynyl)-4-hydroxy-piperidin-1-yl]-isoxazol-5-yl-methanone]
The melting point of the first is lower: 83 to 85 °C for the first, 132 to 135 °C for the second.

Compared with `CC(C)c1ccc(N2CCC(O)(C#Cc3cccc(Cl)c3)CC2)cc1` [Example 1.128, 4-(3-Chloro-phenylethynyl)-1-(4-isopropyl-phenyl)-piperidin-4-ol], `OC1(C#Cc2cccc(Cl)c2)CCN(c2ccnc(Cl)c2)CC1` [Example 1.151, 2′-Chloro-4-(3-chloro-phenylethynyl)-3,4,5,6-tetrahydro-2H-[1,4′]bipyridinyl-4-ol] is higher in melting point: 114 to 119 °C for the first, 139 to 142 °C for the second.

Compared with `Cc1ccccc1N1CCC(O)(C#Cc2cccc(Cl)c2)CC1` [Example 1.137, 4-(3-Chloro-phenylethynyl)-1-o-tolyl-piperidin-4-ol], `OC1(C#Cc2cccc(Cl)c2)CCN(c2nc3ccccc3s2)CC1` [Example 1.144, 1-Benzothiazol-2-yl-4-(3-chloro-phenylethynyl)-piperidin-4-ol] is higher in melting point: 128 to 130 °C for the first, 154 to 157 °C for the second.

First: O=C(C1Oc2ccccc2O1)N1CCC(O)(C#Cc2cccc(Cl)c2)C1 (stereo not drawn) [Example 3.11, Benzo[1,3]dioxol-2-yl-[3-(3-chloro-phenylethynyl)-3-hydroxy-pyrrolidin-1-yl]-methanone]
Second: OC1(C#Cc2cccc(Cl)c2)CCN(c2cccnc2)CC1 [Example 1.138, 4-(3-Chloro-phenylethynyl)-3,4,5,6-tetrahydro-2H-[1,3]bipyridinyl-4-ol]
The melting point of the first is higher: 153 to 155 °C for the first, 124 to 128 °C for the second.

First: OC1(C#Cc2cccc(Cl)c2)CCN(c2cccc3nccnc23)CC1 [Example 1.139, 4-(3-Chloro-phenylethynyl)-1-quinoxalin-5-yl-piperidin-4-ol]
Second: OC1(C#Cc2cccc(Cl)c2)CCN(c2cncnc2)CC1 [Example 1.162, 4-(3-Chloro-phenylethynyl)-1-pyrimidin-5-yl-piperidin-4-ol]
The melting point of the first is lower: 68 to 70 °C for the first, 173 to 177 °C for the second.
